Among the test systems are ACHN; CAKI-1; COLO 205; EKVX; HCT-15; LOX IMVI; M14; NCI-H23; NCI-H460; NCI/ADR-RES; RPMI-8226; SK-MEL-28; SNB-75; SW-620; T47D; NCI-H226; RXF 393; SN12C; DU-145; MDA-MB-231.
Assay in all cases: NCI tumour cell line growth inhibition, 48 h

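The compound was tested at five concentrations on cells cultured in 96-well plates, with a 48-hour exposure period. Here, GI50 denotes the concentration required for 50% inhibition of growth.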 Calls of active or inactive are those of the source. Rule as the data show it: active = GI50 up to about 1.1 µM and inactive = higher.

As for `CC1(C)[C@H]2CC[C@@]13C(=O)N1C(=O)O[C@@H]([C@H]1Cl)C(Cl)(COCc1ccccc1)C(=O)OCCO[C@H]3C2` (some centres undefined), the GI50 is 70.6 µM (inactive) with ACHN; > 100 µM (inactive) with CAKI-1; 18 µM (inactive) in the assay on COLO 205; 95.9 µM (inactive) in the assay with EKVX; 40.8 µM in the assay with HCT-15; 74 µM (inactive) in the assay on LOX IMVI. The GI50 with M14 was 69.2 µM (inactive); with NCI-H23 it was 40.9 µM (inactive); in the assay on NCI-H460, 53.6 µM (inactive); with NCI/ADR-RES, 59.4 µM (inactive); in the assay on RPMI-8226, 28.2 µM (inactive); in the assay on SK-MEL-28 it was > 100 µM (inactive). Also, the values for the GI50 in the assay on SNB-75, with SW-620 and in the assay with T47D were > 100 µM (inactive), 66.8 µM (inactive) and 43.1 µM (inactive), respectively.

Turning to `COC(=O)c1cc(-c2ccc(OC)c(OC)c2)oc1-c1ccc(OC)c(OC)c1`, the GI50 with ACHN is 35.2 µM (inactive); with CAKI-1, 54.7 µM (inactive); with COLO 205, 19.5 µM (inactive); with EKVX it was 52.4 µM (inactive); in the assay with HCT-15, 47.2 µM; in the assay on LOX IMVI, 28.1 µM (inactive). For the same compound, the GI50 with M14 was 55.8 µM (inactive); in the assay on NCI-H226, 34.3 µM (inactive); in the assay with NCI-H23, 26.6 µM (inactive); in the assay on NCI-H460, 48.5 µM (inactive); in the assay with RPMI-8226 it was 33.3 µM (inactive); with RXF 393, 19.1 µM (inactive). The GI50 in the assay on SK-MEL-28 is 57.9 µM (inactive); with SN12C it was 26.8 µM (inactive); in the assay on SNB-75, 33.5 µM (inactive); in the assay with SW-620 it was 45.3 µM (inactive).

With `COc1ccc(OC)c2c1ccc1c(C)c3ccccc3c(C)c12`, the GI50 with ACHN is > 100 µM (inactive); in the assay with CAKI-1 it was > 100 µM (inactive); in the assay on DU-145, > 100 µM (inactive); in the assay on HCT-15, 18 µM; with LOX IMVI it was 60.1 µM (inactive); in the assay with M14, 82 µM (inactive). In addition, the GI50 was 16 µM (inactive) with MDA-MB-231; > 100 µM (inactive) in the assay with NCI-H226; 89.5 µM (inactive) with NCI-H23; 71.9 µM (inactive) in the assay on NCI-H460; > 100 µM (inactive) with RPMI-8226; > 100 µM (inactive) in the assay on SK-MEL-28. Also, the GI50 is 22.9 µM (inactive) in the assay with SN12C, > 100 µM (inactive) in the assay on SNB-75 and > 100 µM (inactive) with T47D.

As to `Cc1ccc(C(=O)C2=CN=C3C(=O)N(c4ccccc4)N(C)C3(C)C2=N)cc1` (centres undefined), the GI50 was > 100 µM (inactive) with ACHN; > 100 µM (inactive) with CAKI-1; > 100 µM (inactive) with COLO 205; > 100 µM (inactive) in the assay with DU-145; > 100 µM (inactive) with EKVX; greater than 100 µM in the assay with HCT-15. Moreover, the GI50 in the assay on LOX IMVI, in the assay on M14, in the assay with MDA-MB-231, in the assay on NCI-H226, in the assay with NCI-H23 and with NCI-H460 was > 100 µM (inactive) throughout. Further, the GI50 in the assay on NCI/ADR-RES, in the assay on RPMI-8226, in the assay with RXF 393, in the assay on SN12C, with SNB-75 and in the assay on SW-620 was > 100 µM (inactive) in each case.

As to `CC(N)C(C)c1ccccc1` (centres undefined), the GI50 with ACHN is > 100 µM (inactive); with CAKI-1, > 100 µM (inactive); in the assay on COLO 205, > 100 µM (inactive); in the assay with EKVX, > 100 µM (inactive); in the assay with HCT-15 it was greater than 100 µM; in the assay on LOX IMVI it was > 100 µM (inactive). For the same compound, the GI50 in the assay on M14, with NCI-H226, in the assay on NCI-H23, in the assay on NCI-H460, in the assay with RPMI-8226 and with RXF 393 was > 100 µM (inactive) in each case. Also, the GI50 with SK-MEL-28, in the assay on SN12C, with SNB-75 and in the assay on SW-620 was > 100 µM (inactive) throughout.

Take `CCOC(=O)CSC1NC(C(=O)OC)CC1OC` (centres undefined): the GI50 is > 100 µM (inactive) in the assay with ACHN; > 100 µM (inactive) in the assay with CAKI-1; > 100 µM (inactive) in the assay on COLO 205; > 100 µM (inactive) in the assay on DU-145; > 100 µM (inactive) in the assay with EKVX; greater than 100 µM in the assay on HCT-15. Besides, the GI50 is > 100 µM (inactive) with M14; > 100 µM (inactive) in the assay on MDA-MB-231; > 100 µM (inactive) in the assay on NCI-H23; 67.6 µM (inactive) in the assay with NCI-H460; > 100 µM (inactive) in the assay on NCI/ADR-RES; > 100 µM (inactive) in the assay with RPMI-8226. For the same compound, the GI50 with RXF 393, with SK-MEL-28, in the assay with SNB-75 and in the assay on SW-620 was > 100 µM (inactive) in each case.

For the compound `COC(=O)C1=CC(=O)C(C(=O)Nc2ccc(OC)cc2)C(c2ccccc2)O1` (centres undefined), the GI50 is 41 µM (inactive) in the assay on ACHN; 25.2 µM (inactive) in the assay with CAKI-1; > 100 µM (inactive) with COLO 205; 44.1 µM (inactive) with EKVX; 40.6 µM in the assay on HCT-15; 45.1 µM (inactive) with LOX IMVI. Besides, the GI50 with M14 was 33.1 µM (inactive); in the assay on NCI-H226 it was 21.9 µM (inactive); in the assay with NCI-H23, 21.4 µM (inactive); with NCI-H460, 43.9 µM (inactive); in the assay with RPMI-8226 it was 54.5 µM (inactive); in the assay with RXF 393, 23.5 µM (inactive). Further, the GI50 was 37.8 µM (inactive) in the assay with SK-MEL-28, 47.5 µM (inactive) with SN12C, 23.1 µM (inactive) in the assay on SNB-75 and 40.5 µM (inactive) with SW-620.

With `Cc1cc2c(cc1O)CC[C@@H]1[C@@H]2CC[C@]2(C)[C@@H](O)CC[C@@H]12`, the GI50 in the assay on ACHN was 18.9 µM (inactive); with CAKI-1, 16.9 µM (inactive); in the assay on COLO 205 it was 17.6 µM (inactive); in the assay with HCT-15 it was 4.08 µM; in the assay with LOX IMVI, 11 µM (inactive); with M14 it was 7.24 µM (inactive). In addition, the GI50 with MDA-MB-231 is 9.38 µM (inactive); with NCI-H23 it was 13.6 µM (inactive); in the assay with NCI-H460, 8.65 µM (inactive); in the assay with NCI/ADR-RES it was 5.77 µM (inactive); in the assay with RPMI-8226, 4.74 µM (inactive); in the assay on SK-MEL-28, 10.8 µM (inactive). Further, the GI50 in the assay with SN12C was 13.3 µM (inactive); in the assay with SNB-75, 5.43 µM (inactive); with SW-620, 4.28 µM (inactive); in the assay with T47D, 19.3 µM (inactive).

With `CC(C)c1cccc(=O)c(O)c1` [HINOKITIOL], the GI50 is 3.33 µM (inactive) in the assay on ACHN; 16.1 µM (inactive) with CAKI-1; 4.24 µM (inactive) in the assay on COLO 205; 17.3 µM (inactive) with EKVX; 5.14 µM with HCT-15; 5.06 µM (inactive) in the assay with LOX IMVI. Also, the GI50 with M14 is 8.49 µM (inactive); in the assay on NCI-H226, 11 µM (inactive); in the assay with NCI-H23, 8.09 µM (inactive); in the assay on NCI-H460 it was 6.98 µM (inactive); with RPMI-8226 it was 7.93 µM (inactive); in the assay with RXF 393, 25.4 µM (inactive). Further, the GI50 is 18.9 µM (inactive) with SK-MEL-28, 11.2 µM (inactive) with SN12C, 24.4 µM (inactive) in the assay with SNB-75 and 5.9 µM (inactive) in the assay with SW-620.
